Test results reported in ChEMBL document CHEMBL1687943, “Synthesis of new glycyrrhetinic acid derived ring A azepanone, 29-urea and 29-hydroxamic acid derivatives as selective 11β-hydroxysteroid dehydrogenase 2 inhibitors” (Bioorg Med Chem, 2011).

Tests used:
[1] = target: T1, 11-beta-hydroxysteroid dehydrogenase 1 (Homo sapiens, UniProt P28845); details: HEK293, at 1 µM
Target sequence in this assay (P28845 whole entry, looked up): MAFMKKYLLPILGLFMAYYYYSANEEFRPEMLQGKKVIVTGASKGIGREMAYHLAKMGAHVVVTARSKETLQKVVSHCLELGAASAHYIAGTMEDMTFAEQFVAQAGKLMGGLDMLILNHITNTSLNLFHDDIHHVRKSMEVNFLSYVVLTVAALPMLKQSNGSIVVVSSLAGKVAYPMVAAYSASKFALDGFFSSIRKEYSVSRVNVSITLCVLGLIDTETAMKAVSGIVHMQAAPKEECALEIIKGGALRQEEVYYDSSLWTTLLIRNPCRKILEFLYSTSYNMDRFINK
Description: Inhibition of human recombinant 11beta-HSD1 expressed in HEK293 cells assessed as conversion of [1,2-[3H]cortisone to cortisol at 1 uM after 10 mins by scintillation counting

[2] = target: T1, 11-beta-hydroxysteroid dehydrogenase 1; details: HEK293, at 1000 nM
Target sequence in this assay (P28845 whole entry, looked up): as above
Description: Inhibition of human recombinant 11beta-HSD1 expressed in HEK293 cells assessed as residual conversion of [1,2-[3H]cortisone to cortisol at 1000 nM after 10 mins by scintillation counting

[3] = target: T1, 11-beta-hydroxysteroid dehydrogenase 1; details: HEK293, at 200 nM
Target sequence in this assay (P28845 whole entry, looked up): as above
Description: Inhibition of human recombinant 11beta-HSD1 expressed in HEK293 cells assessed as residual conversion of [1,2-[3H]cortisone to cortisol at 200 nM after 10 mins by scintillation counting

[4] = target: T2, 11-beta-hydroxysteroid dehydrogenase type 2 (Homo sapiens) (UniProt P80365); details: HEK293, at 200 nM
T2 sequence (whole entry): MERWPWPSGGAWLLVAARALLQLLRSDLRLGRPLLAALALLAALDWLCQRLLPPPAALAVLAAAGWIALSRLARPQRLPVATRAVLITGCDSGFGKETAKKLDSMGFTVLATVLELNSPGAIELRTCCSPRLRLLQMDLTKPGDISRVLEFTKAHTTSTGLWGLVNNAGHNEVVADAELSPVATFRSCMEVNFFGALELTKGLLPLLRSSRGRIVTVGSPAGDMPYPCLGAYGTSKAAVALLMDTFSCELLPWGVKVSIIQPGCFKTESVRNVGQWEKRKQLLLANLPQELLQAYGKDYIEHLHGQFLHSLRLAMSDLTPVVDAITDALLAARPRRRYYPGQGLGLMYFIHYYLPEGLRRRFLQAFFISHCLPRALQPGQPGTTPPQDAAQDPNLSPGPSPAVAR
Description: Inhibition of human 11beta-HSD2 expressed in HEK293 cells assessed as residual conversion of [1,2,6,7-[3H]cortisol to cortisone at 200 nM after 10 mins by scintillation counting

[5] = target: T1, 11-beta-hydroxysteroid dehydrogenase 1; experiment: Inhibition of human recombinant 11beta-HSD1 expressed in HEK293 cells assessed as conversion of [1,2-[3H]cortisone to cortisol after 10 mins by scintillation counting; type: cell-based
Target sequence in this assay (P28845 whole entry): as the sequence (P28845 whole entry, looked up) above

[6] = target: T3, 11-beta-hydroxysteroid dehydrogenase type 2 (Homo sapiens, UniProt P80365); experiment: Inhibition of human 11beta-HSD2 expressed in HEK293 cells assessed as conversion of [1,2,6,7-[3H]cortisol to cortisone after 10 mins by scintillation counting; type: cell-based
T3 sequence (P80365 whole entry): T2 sequence (whole entry)

[7] = target: T2, 11-beta-hydroxysteroid dehydrogenase type 2 (Homo sapiens); details: HEK293, at 1000 nM
Description: Inhibition of human 11beta-HSD2 expressed in HEK293 cells assessed as residual conversion of [1,2,6,7-[3H]cortisol to cortisone at 1000 nM after 10 mins by scintillation counting

| residual activity [2] [%] | residual activity [3] [%] | residual activity [4] [%] | Structure (SMILES) | further results |
| --- | --- | --- | --- | --- |
| 16 |  |  | CC1(C)[C@@H](O)CC[C@]2(C)[C@H]3C(=O)C=C4[C@@H]5C[C@@](C)(C(=O)O)CC[C@]5(C)CC[C@@]4(C)[C@]3(C)CC[C@@H]12 | inhibition [1]: 83.9% |
| 12 |  |  | CC(=O)O[C@H]1CC[C@]2(C)[C@H]3C(=O)C=C4[C@@H]5C[C@@](C)(C(=O)O)CC[C@]5(C)CC[C@@]4(C)[C@]3(C)CC[C@H]2C1(C)C |  |
| 12 |  |  | CC1(C)[C@@H](OC(=O)CCC(=O)O)CC[C@]2(C)[C@H]3C(=O)C=C4[C@@H]5C[C@@](C)(C(=O)O)CC[C@]5(C)CC[C@@]4(C)[C@]3(C)CC[C@@H]12 |  |
| 36 |  |  | CC(=O)N[C@H]1CC[C@]2(C)[C@H]3C(=O)C=C4[C@@H]5C[C@@](C)(C(=O)O)CC[C@]5(C)CC[C@@]4(C)[C@]3(C)CC[C@H]2C1(C)C | residual activity [7]: 0.2% |
|  | 97 | 38 | CC(=O)O[C@H]1CC[C@]2(C)[C@H]3C(=O)C=C4[C@@H]5C[C@@](C)(NC(=O)NCCO)CC[C@]5(C)CC[C@@]4(C)[C@]3(C)CC[C@H]2C1(C)C |  |
|  | 92 | 34 | CC(=O)O[C@H]1CC[C@]2(C)[C@H]3C(=O)C=C4[C@@H]5C[C@@](C)(NC(=O)NO)CC[C@]5(C)CC[C@@]4(C)[C@]3(C)CC[C@H]2C1(C)C |  |

Continued, molecule first:

| Structure (SMILES) | residual activity [2] [%] | residual activity [3] [%] | residual activity [4] [%] | further results |
| --- | --- | --- | --- | --- |
| CC1(C)[C@@H](O)CC[C@]2(C)C3=CC(=O)[C@H]4[C@@H]5C[C@@](C)(C(=O)O)CC[C@]5(C)CC[C@@]4(C)[C@]3(C)CC[C@@H]12 |  | 77 | 85 |  |
| CC(=O)O[C@H]1CC[C@]2(C)[C@H]3C(=O)C=C4[C@@H]5C[C@@](C)(NC(=O)N(CCO)CCO)CC[C@]5(C)CC[C@@]4(C)[C@]3(C)CC[C@H]2C1(C)C |  | 102 | 93 |  |
| CC1(C)C(=O)CC[C@]2(C)[C@H]3C(=O)C=C4[C@@H]5C[C@@](C)(NC(N)=O)CC[C@]5(C)CC[C@@]4(C)[C@]3(C)CC[C@@H]12 |  |  |  | IC50 [5]: > 10 µM |
| CC1(C)[C@@H](Oc2noc(=O)[nH]2)CC[C@]2(C)[C@H]3C(=O)C=C4[C@@H]5C[C@@](C)(NC(N)=O)CC[C@]5(C)CC[C@@]4(C)[C@]3(C)CC[C@@H]12 |  | 81 | 24 | IC50 [5]: > 40 µM; IC50 [6]: > 4 µM |
| CC(=O)O[C@H]1CC[C@]2(C)[C@H]3C(=O)C=C4[C@@H]5C[C@@](C)(NC(=O)NS(C)(=O)=O)CC[C@]5(C)CC[C@@]4(C)[C@]3(C)CC[C@H]2C1(C)C |  | 90 | 20 |  |
| CC(=O)O[C@H]1CC[C@]2(C)[C@H]3C(=O)C=C4[C@@H]5C[C@@](C)(NC(=O)N(C)O)CC[C@]5(C)CC[C@@]4(C)[C@]3(C)CC[C@H]2C1(C)C |  | 96 | 110 |  |
| CC1(C)C(=O)CC[C@]2(C)[C@H]3C(=O)C=C4[C@@H]5C[C@@](C)(C(=O)O)CC[C@]5(C)CC[C@@]4(C)[C@]3(C)CC[C@@H]12 | 36 |  |  |  |
| CC1(C)NC(=O)CC[C@]2(C)[C@H]3C(=O)C=C4[C@@H]5C[C@@](C)(C(=O)O)CC[C@]5(C)CC[C@@]4(C)[C@]3(C)CC[C@@H]12 | 43 |  |  | residual activity [7]: 21% |
| CN(O)C(=O)[C@@]1(C)CC[C@]2(C)CC[C@]3(C)C(=CC(=O)[C@@H]4[C@@]5(C)CCC(=O)NC(C)(C)[C@@H]5CC[C@]43C)[C@@H]2C1 |  | 73 |  | IC50 [5]: > 40 µM |
| CC1(C)/C(=N/O)CC[C@]2(C)[C@H]3C(=O)C=C4[C@@H]5C[C@@](C)(C(=O)O)CC[C@]5(C)CC[C@@]4(C)[C@]3(C)CC[C@@H]12 |  |  |  | residual activity [7]: 1% |
